In article PMC4042408 (ACS chemical biology, 2013):

Key:
KIAA1363 = biological target: T1, KIAA1363 (Mus musculus, UniProt Q8BLF1); test: Gel-based competitive ABPP; format: biochemical
T1 sequence (Q8BLF1 1-408): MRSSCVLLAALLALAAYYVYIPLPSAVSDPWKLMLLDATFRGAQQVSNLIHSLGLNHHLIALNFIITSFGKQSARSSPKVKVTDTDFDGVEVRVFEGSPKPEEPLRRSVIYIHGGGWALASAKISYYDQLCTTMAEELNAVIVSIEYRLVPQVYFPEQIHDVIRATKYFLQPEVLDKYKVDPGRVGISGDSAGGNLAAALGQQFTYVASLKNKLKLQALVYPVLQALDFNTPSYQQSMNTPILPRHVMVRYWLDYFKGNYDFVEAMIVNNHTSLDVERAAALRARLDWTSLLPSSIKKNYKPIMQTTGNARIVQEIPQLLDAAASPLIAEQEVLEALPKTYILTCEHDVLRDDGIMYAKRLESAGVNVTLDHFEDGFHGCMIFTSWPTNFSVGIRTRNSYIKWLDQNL

ABHD6 = biological target: T2, ABHD6 (Mus musculus, UniProt Q8R2Y0); test: Gel-based competitive ABPP; format: biochemical
T2 sequence (Q8R2Y0 1-336): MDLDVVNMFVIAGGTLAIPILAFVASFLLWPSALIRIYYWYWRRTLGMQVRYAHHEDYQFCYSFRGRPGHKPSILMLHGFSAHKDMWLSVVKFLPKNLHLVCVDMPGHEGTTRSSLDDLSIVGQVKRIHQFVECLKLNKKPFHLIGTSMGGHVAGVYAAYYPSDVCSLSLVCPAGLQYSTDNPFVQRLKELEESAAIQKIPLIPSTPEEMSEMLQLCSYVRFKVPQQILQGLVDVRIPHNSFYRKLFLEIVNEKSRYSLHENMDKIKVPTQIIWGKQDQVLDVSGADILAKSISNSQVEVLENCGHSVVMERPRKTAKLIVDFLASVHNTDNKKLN

CES2 = test: Gel-based competitive ABPP; format: biochemical
APEH = biological target: T3, APEH (Mus musculus, UniProt Q8R146); test: Gel-based competitive ABPP; format: biochemical; conditions: mouse brain proteome
T3 sequence (Q8R146 1-732): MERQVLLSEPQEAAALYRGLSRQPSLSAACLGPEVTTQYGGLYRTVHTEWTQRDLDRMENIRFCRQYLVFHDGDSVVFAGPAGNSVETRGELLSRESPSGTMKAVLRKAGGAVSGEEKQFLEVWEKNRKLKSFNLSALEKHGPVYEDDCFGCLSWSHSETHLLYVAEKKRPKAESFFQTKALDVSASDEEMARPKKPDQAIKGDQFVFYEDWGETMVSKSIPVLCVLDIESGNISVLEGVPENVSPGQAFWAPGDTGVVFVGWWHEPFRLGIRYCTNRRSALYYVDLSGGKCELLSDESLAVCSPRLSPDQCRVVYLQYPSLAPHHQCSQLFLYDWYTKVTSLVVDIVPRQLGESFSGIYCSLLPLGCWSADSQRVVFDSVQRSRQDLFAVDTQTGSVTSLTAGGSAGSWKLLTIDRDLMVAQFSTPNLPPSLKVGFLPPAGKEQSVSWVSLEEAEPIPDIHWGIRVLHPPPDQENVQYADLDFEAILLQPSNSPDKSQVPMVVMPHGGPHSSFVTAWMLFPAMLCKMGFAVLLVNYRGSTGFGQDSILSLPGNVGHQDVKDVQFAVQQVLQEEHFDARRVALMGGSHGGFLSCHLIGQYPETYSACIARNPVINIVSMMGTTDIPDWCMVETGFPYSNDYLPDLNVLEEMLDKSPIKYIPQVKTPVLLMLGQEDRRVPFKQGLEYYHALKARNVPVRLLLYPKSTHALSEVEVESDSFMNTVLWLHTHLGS

CES1 = biological target: T4, CES1 (Mus musculus, UniProt Q8VCC2); test: Gel-based competitive ABPP; format: biochemical
T4 sequence (Q8VCC2 19-565): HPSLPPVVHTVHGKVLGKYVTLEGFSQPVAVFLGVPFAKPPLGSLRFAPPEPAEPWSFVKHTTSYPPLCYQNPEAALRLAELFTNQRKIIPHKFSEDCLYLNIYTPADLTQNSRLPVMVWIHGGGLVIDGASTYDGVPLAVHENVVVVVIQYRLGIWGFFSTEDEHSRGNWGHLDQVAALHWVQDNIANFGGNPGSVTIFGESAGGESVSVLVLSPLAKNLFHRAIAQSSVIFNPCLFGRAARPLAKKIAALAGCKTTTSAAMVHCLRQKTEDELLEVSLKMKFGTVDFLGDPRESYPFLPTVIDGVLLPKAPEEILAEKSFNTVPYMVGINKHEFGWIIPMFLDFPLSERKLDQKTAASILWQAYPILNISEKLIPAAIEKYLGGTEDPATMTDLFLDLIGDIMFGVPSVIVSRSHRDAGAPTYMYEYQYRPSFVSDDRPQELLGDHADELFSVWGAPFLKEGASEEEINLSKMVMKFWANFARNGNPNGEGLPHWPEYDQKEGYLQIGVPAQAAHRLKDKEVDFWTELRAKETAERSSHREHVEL

ABHD3 = biological target: T5, ABHD3 (Mus musculus, UniProt Q91ZH7); test: Gel-based competitive ABPP; format: biochemical
T5 sequence (Q91ZH7 1-411): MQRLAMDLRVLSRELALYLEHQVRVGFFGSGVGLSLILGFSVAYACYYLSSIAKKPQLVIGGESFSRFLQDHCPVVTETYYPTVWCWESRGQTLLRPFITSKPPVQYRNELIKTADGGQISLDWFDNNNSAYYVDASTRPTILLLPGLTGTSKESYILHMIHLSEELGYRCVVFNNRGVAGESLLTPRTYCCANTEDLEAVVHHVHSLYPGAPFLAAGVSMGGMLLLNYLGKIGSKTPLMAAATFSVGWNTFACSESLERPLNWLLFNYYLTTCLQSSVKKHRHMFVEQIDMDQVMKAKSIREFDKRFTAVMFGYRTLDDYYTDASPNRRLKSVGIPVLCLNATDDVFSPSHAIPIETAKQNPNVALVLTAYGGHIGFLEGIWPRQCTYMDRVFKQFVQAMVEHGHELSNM

HSL = biological target: T6, HSL (Mus musculus, UniProt P54310); test: Gel-based competitive ABPP; format: biochemical
T6 sequence (P54310 1-759): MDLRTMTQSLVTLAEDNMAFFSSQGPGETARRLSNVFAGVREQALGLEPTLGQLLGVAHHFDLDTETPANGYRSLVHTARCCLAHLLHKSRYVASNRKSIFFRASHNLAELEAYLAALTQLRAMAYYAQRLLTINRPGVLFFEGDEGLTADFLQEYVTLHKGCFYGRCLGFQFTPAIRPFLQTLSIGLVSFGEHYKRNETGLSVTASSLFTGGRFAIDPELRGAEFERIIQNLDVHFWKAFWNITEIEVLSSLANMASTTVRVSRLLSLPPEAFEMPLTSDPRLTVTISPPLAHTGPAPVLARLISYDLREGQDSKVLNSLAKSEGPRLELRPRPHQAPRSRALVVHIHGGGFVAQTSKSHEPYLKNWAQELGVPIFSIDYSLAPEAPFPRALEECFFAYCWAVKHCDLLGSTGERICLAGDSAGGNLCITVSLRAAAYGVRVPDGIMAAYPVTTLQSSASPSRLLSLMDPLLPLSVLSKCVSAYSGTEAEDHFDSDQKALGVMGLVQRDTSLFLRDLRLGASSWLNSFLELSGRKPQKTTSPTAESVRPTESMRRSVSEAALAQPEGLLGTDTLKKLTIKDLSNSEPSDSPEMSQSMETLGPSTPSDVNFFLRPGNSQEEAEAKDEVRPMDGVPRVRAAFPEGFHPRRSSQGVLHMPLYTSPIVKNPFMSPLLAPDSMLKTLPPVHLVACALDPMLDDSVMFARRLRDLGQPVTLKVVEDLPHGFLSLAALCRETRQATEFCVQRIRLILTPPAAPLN

CES3 = biological target: T7, CES3 (Mus musculus, UniProt Q8VCT4); test: Gel-based competitive ABPP; format: biochemical
T7 sequence (Q8VCT4 19-565): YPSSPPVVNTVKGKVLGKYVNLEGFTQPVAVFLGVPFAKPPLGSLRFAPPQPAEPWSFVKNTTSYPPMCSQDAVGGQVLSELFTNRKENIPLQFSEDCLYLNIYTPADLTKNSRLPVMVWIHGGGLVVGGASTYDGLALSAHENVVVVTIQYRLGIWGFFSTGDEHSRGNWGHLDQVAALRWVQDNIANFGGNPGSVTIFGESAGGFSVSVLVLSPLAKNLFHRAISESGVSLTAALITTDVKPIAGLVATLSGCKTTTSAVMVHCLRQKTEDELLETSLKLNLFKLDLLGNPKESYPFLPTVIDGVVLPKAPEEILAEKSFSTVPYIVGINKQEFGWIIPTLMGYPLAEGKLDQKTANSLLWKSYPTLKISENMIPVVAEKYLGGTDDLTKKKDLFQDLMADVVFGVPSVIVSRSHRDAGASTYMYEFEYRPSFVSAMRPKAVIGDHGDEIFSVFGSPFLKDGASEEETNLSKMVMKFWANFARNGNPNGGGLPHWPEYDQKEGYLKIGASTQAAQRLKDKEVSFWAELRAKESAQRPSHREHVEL

[1] = test system: C20:4 LPA hydrolytic activity of mouse brain proteomes; format: biochemical; conditions: inhibitor 1 μM, 30 min, 37°C
serine hydrolases = test: Competitive ABPP-MudPIT of brain and peripheral tissues; format: in vivo, mouse

For `CCOP(=O)(OCC)Oc1nc(Cl)c(Cl)cc1Cl` [CPO, chlorpyrifos-oxon], the “IC50 compared to that of ACHE” value (KIAA1363) was “comparable”, the “IC50 compared to that of ACHE” value (ABHD6) was “equivalent or lower” and the “IC50 compared to that of ACHE” value (CES2) was “equivalent or lower”. For the same compound, the “IC50 compared to that of ACHE” value (APEH) was “equivalent or lower”, the “IC50 compared to that of ACHE” value (CES1) was “equivalent or lower” and the “IC50 compared to that of ACHE” value (ABHD3) was “comparable”. The “IC50 compared to that of ACHE” value (HSL) was “equivalent or lower” and the “IC50 compared to that of ACHE” value (CES3) was “comparable”.

In the case of `O=C(Oc1ccc([N+](=O)[O-])cc1)N1CCN(Cc2cccc(Oc3ccccc3)c2)CC1` [JZL195], the “C20:4 LPA hydrolytic activity (C20:4 FFA release)” value [1] was “inhibits”.

For `O=C(Oc1ccc([N+](=O)[O-])cc1)N1CCC(C(O)(c2ccc3c(c2)OCO3)c2ccc3c(c2)OCO3)CC1` [JZL184], the “C20:4 LPA hydrolytic activity (C20:4 FFA release)” value [1] was “inhibits”.

For `CCOP(=S)(OCC)Oc1nc(Cl)c(Cl)cc1Cl` [CPF, chlorpyrifos], the “additional serine hydrolases not found in the brain (AADAC, CES1, CES1F, CES2, CES2B, CES2G, CES3, CES5, CES6, ES22, BChE) in peripheral tissues” value (serine hydrolases; CPF-treated mice, peripheral tissues) was “blocked” and the “total number of metabolic serine hydrolases inhibited in vivo” value (serine hydrolases; mice, brain and peripheral tissues, CPF 50 mg/kg ip, 4 h) was “twenty-one”.
